Patent US9206193B2, “Substituted norindenoisoquinolines, syntheses thereof, and methods of use” (PURDUE RESEARCH FOUNDATION, priority 2010, dated 2015)
Read-outs that look alike come from different tables or passages of the source.

Tests used:
[1] = test system: all human cancer cell lines successfully tested; test: NCI DTP antiproliferative screen, mean graph midpoint; type: cell-based; conditions: average GI50 of all cell lines tested; values outside 10^-8 to 10^-4 M taken as the limits
Experimental: (§1) The norindenoisoquinolines are examined for antiproliferative activity in the National Cancer Institute's Developmental Therapeutics Program (DTP) (Boyd & Paull, Some Practical Considerations and Applications of the National Cancer Institute In Vitro Anticancer Drug Discovery Screen. Drug Development Res. 1995, 34, 91-109; Shoemaker, The NCI60 Human Tumour Cell Line Anticancer Drug screen. Nat. Rev. Cancer 2006, 6, 813-823). Each compound is evaluated against approximately 55 human cell lines representing leukemia, melanoma, and cancers of the lung, colon, brain, breast, ovary, prostate and kidney. After an initial one-dose assay at a single high dose (10^−5 M), only compounds that satisfy the pre-determined threshold inhibition criteria are selected for further 5-dose assay.

[2] = test system: MCF7; test: NCI DTP antiproliferative screen, breast cancer MCF7; type: cell-based, human
Experimental: as §1

[3] = test system: NCI-H460; test: NCI DTP antiproliferative screen, non-small cell lung cancer NCI-H460; type: cell-based, human
Experimental: as §1

[4] = test system: CCRF-CEM; test: NCI DTP antiproliferative screen, leukemia CCRF-CEM; type: cell-based, human; conditions: read-out: GI50 against leukemia CCRF-CEM
Experimental: as §1

[5] = test system: COLO 205; test: NCI DTP antiproliferative screen, colon cancer COLO 205; type: cell-based, human
Experimental: as §1

[6] = test system: SR; test: NCI DTP antiproliferative screen, leukemia SR; type: cell-based, human
Experimental: as §1

[7] = test system: U251; test: NCI DTP antiproliferative screen, CNS cancer U251; type: cell-based, human
Experimental: as §1

[8] = test system: SF-539; test: NCI DTP antiproliferative screen, CNS SF-539; type: cell-based, human
Experimental: as §1

[9] = test system: DU-145; test: NCI DTP antiproliferative screen, prostate DU-145; type: cell-based, human
Experimental: as §1

[10] = test system: IGROVI; test: NCI DTP antiproliferative screen, ovarian cancer IGROVI; type: cell-based, human
Experimental: as §1

[11] = test system: HOP-62; test: NCI DTP antiproliferative screen, lung HOP-62; type: cell-based, human
Experimental: as §1

[12] = test system: HCC-2998; test: NCI DTP antiproliferative screen, colon cancer HCC-2998; type: cell-based, human
Experimental: as §1

[13] = test system: HCT-116; test: NCI DTP antiproliferative screen, colon HCT-116; type: cell-based, human
Experimental: as §1

[14] = test system: CAKI-1; test: NCI DTP antiproliferative screen, renal cancer CAKI-1; type: cell-based, human
Experimental: as §1

[15] = test system: RPMI-8226; test: NCI DTP antiproliferative screen, leukemia RPMI-8226; type: cell-based, human; conditions: read-out: GI50 against leukemia RPMI-8226
Experimental: as §1

[16] = test system: UACC-62; test: NCI DTP antiproliferative screen, melanoma UACC-62; type: cell-based, human
Experimental: as §1

[17] = test system: SF-295; test: NCI DTP antiproliferative screen, CNS cancer SF-295; type: cell-based, human
Experimental: as §1

[18] = test system: SN12C; test: NCI DTP antiproliferative screen, renal SN12C; type: cell-based, human
Experimental: as §1

[19] = test system: ACHN; test: NCI DTP antiproliferative screen, renal cancer ACHN; type: cell-based, human
Experimental: as §1

[20] = test system: MOLT-4; test: NCI DTP antiproliferative screen, leukemia MOLT-4; type: cell-based, human; conditions: read-out: GI50 against leukemia MOLT-4
Experimental: as §1

[21] = test system: OVCAR-3; test: NCI DTP antiproliferative screen, ovarian OVCAR-3; type: cell-based, human
Experimental: as §1

COc1cc2cnc3c(c2cc1OC)Cc1c-3cc2c(c1Cn1ccnc1)OCO2 [Compound 14c, 2,3-Dimethoxy-8,9-methylenedioxy-10-(1H-imidazol-yl)methyl-11H-indeno[1,2-c]isoquinoline]
MGM (mean graph midpoint for growth inhibition) [1]: 0.52 µM
GI50 ([2]; 1st run, read-out: GI50 Breast Cancer MCF7): 90 nM
GI50 ([2]; 2nd run, read-out: GI50 Breast Cancer MCF7): 89 nM
GI50 ([2]; Mean of runs, read-out: GI50 Breast Cancer MCF7): 90 nM
GI50 ([2]; read-out: GI50 against human breast cancer cell MCF-7): 90 nM
GI50 ([3]; 1st run): 160 nM
GI50 ([3]; 2nd run): 110 nM
GI50 ([3]; Mean of runs): 130 nM
GI50 [4]: 37 nM
GI50 ([5]; 1st run): 760 nM
GI50 ([5]; 2nd run): 280 nM
GI50 ([5]; Mean of runs): 510 nM
GI50 ([6]; 1st run, read-out: GI50 Leukemia SR): 12 nM
GI50 ([6]; Mean of runs, read-out: GI50 Leukemia SR): 12 nM
GI50 ([6]; read-out: GI50 against leukemia SR): 12 nM
GI50 ([7]; 1st run): 150 nM
GI50 ([7]; 2nd run): 170 nM
GI50 ([7]; Mean of runs): 160 nM
GI50 [8]: 280 nM
GI50 [9]: 260 nM
GI50 ([9]; 1st run, read-out: GI50 Prostate Cancer DU-145): 260 nM
GI50 ([9]; 2nd run, read-out: GI50 Prostate Cancer DU-145): 410 nM
GI50 ([9]; Mean of runs, read-out: GI50 Prostate Cancer DU-145): 330 nM
GI50 ([10]; 1st run, read-out: GI50 Ovarian Cancer IGROVI): 33 nM
GI50 ([10]; 2nd run, read-out: GI50 Ovarian Cancer IGROVI): 210 nM
GI50 ([10]; Mean of runs, read-out: GI50 Ovarian Cancer IGROVI): 120 nM
GI50 ([10]; read-out: GI50 against human ovarian cancer cell IGROVI): 121 nM
GI50 [11]: 350 nM
GI50 ([12]; 1st run): 110 nM
GI50 ([12]; 2nd run): 2100 nM
GI50 ([12]; Mean of runs): 1100 nM
GI50 [13]: 160 nM
GI50 ([14]; 1st run): 170 nM
GI50 ([14]; 2nd run): 400 nM
GI50 ([14]; Mean of runs): 290 nM
GI50 [15]: 41 nM
GI50 [16]: 210 nM
GI50 ([16]; 1st run, read-out: GI50 Melanoma UACC-62): 210 nM
GI50 ([16]; 2nd run, read-out: GI50 Melanoma UACC-62): 180 nM
GI50 ([16]; Mean of runs, read-out: GI50 Melanoma UACC-62): 200 nM
GI50 ([17]; 1st run): 160 nM
GI50 ([17]; 2nd run): 130 nM
GI50 ([17]; Mean of runs): 150 nM
GI50 [18]: 600 nM
GI50 ([19]; 1st run): 270 nM
GI50 ([19]; 2nd run): 300 nM
GI50 ([19]; Mean of runs): 280 nM
GI50 [20]: 60 nM
GI50 [21]: 210 nM
